# From ChEMBL document CHEMBL3885881, “DrugMatrix”
# Species: Rattus norvegicus
# Test: DrugMatrix - Regimen: Daily Repeat
# Type: toxicity, organism-based, Sprague-Dawley
# Design: regimen Daily Repeat, gender Male, age 6-8 weeks
# Conditions: in vivo, po, route oral GAVAGE, vehicle 100 % SALINE; for ABSOLUTE BASOPHIL / ABSOLUTE EOSINOPHIL / ABSOLUTE LYMPHOCYTE / ABSOLUTE MONOCYTE / ABSOLUTE SEGMENTED NEUTROPHIL / BASOPHIL / EOSINOPHIL / ERYTHROCYTE COUNT / HEMATOCRIT / HEMOGLOBIN / LEUKOCYTE COUNT / LYMPHOCYTE / MEAN CORPUSCULAR HEMOGLOBIN / MEAN CORPUSCULAR HEMOGLOBIN CONCENTRATION / MEAN CORPUSCULAR VOLUME / MONOCYTE / NEUTROPHIL / NUCLEATED RED BLOOD CELLS / PLATELET COUNT: tissue Blood; for ALANINE AMINOTRANSFERASE / ALBUMIN / ALKALINE PHOSPHATASE / ASPARTATE AMINOTRANSFERASE / BLOOD UREA NITROGEN / CARBON DIOXIDE / CHLORIDE / CHOLESTEROL / CREATINE PHOSPHOKINASE / CREATININE / GLUCOSE / LACTATE DEHYDROGENASE / LIPASE / PHOSPHORUS / POTASSIUM / SODIUM / TOTAL BILIRUBIN / TOTAL PROTEIN / URIC ACID: tissue Plasma
# [1] = 0 mg/kg, 72 h, dose level Control, time 3 day
# [2] = 0 mg/kg, […], dose level Control, time 7 day
# [3] = 10 mg/kg, 72 h, dose level Low, time 3 day
smiles,measurement,setting,value
O=[As][O-].[Na+] [SODIUM ARSENITE],ABSOLUTE BASOPHIL,[1],0 CELLS/uL
same,ABSOLUTE EOSINOPHIL,[1],66 CELLS/uL
same,ABSOLUTE LYMPHOCYTE,[1],11922.83 CELLS/uL
same,ABSOLUTE MONOCYTE,[1],401.5 CELLS/uL
same,ABSOLUTE SEGMENTED NEUTROPHIL,[1],1526.33 CELLS/uL
same,BASOPHIL,[1],0%
same,EOSINOPHIL,[1],0.5%
same,ERYTHROCYTE COUNT,[1],5.62 x10E6/uL
same,HEMATOCRIT,[1],37.17%
same,HEMOGLOBIN,[1],13.53 G/DL
same,LEUKOCYTE COUNT,[1],13.92 x10E3/uL
same,LYMPHOCYTE,[1],86.17%
same,MEAN CORPUSCULAR HEMOGLOBIN,[1],24.07 pg
same,MEAN CORPUSCULAR HEMOGLOBIN CONCENTRATION,[1],36.42 G/DL
same,MEAN CORPUSCULAR VOLUME,[1],66.1 fL
same,MONOCYTE,[1],3%
same,NEUTROPHIL,[1],10.33%
same,NUCLEATED RED BLOOD CELLS,[1],0 /100WBC
same,PLATELET COUNT,[1],1107 x10E3/uL
same,ALANINE AMINOTRANSFERASE,[1],45.33 u/L
same,ALBUMIN,[1],4.3 G/DL
same,ALKALINE PHOSPHATASE,[1],321.33 u/L
same,ASPARTATE AMINOTRANSFERASE,[1],77.33 u/L
same,BLOOD UREA NITROGEN,[1],14.33 mg/dL
same,CARBON DIOXIDE,[1],32.33 mmol/L
same,CHLORIDE,[1],99.67 MEQ/L
same,CHOLESTEROL,[1],82.33 mg/dL
same,CREATINE PHOSPHOKINASE,[1],205.5 u/L
same,CREATININE,[1],0.19 mg/dL
same,GLUCOSE,[1],150.83 mg/dL
same,LACTATE DEHYDROGENASE,[1],88.17 u/L
same,LIPASE,[1],10.83 u/L
same,PHOSPHORUS,[1],10.9 mg/dL
same,POTASSIUM,[1],5.83 MEQ/L
same,SODIUM,[1],145.15 MEQ/L
same,TOTAL BILIRUBIN,[1],0.12 mg/dL
same,TOTAL PROTEIN,[1],6.22 G/DL
same,URIC ACID,[1],1 mg/dL
same,ABSOLUTE BASOPHIL,[2],0 CELLS/uL
same,ABSOLUTE EOSINOPHIL,[2],22 CELLS/uL
same,ABSOLUTE LYMPHOCYTE,[2],11105.17 CELLS/uL
same,ABSOLUTE MONOCYTE,[2],258.17 CELLS/uL
same,ABSOLUTE SEGMENTED NEUTROPHIL,[2],881.33 CELLS/uL
same,BASOPHIL,[2],0%
same,EOSINOPHIL,[2],0.17%
same,ERYTHROCYTE COUNT,[2],5.29 x10E6/uL
same,HEMATOCRIT,[2],34.03%
same,HEMOGLOBIN,[2],13.67 G/DL
same,LEUKOCYTE COUNT,[2],12.27 x10E3/uL
same,LYMPHOCYTE,[2],90.83%
same,MEAN CORPUSCULAR HEMOGLOBIN,[2],25.9 pg
same,MEAN CORPUSCULAR HEMOGLOBIN CONCENTRATION,[2],40.18 G/DL
same,MEAN CORPUSCULAR VOLUME,[2],64.42 fL
same,MONOCYTE,[2],2.17%
same,NEUTROPHIL,[2],6.83%
same,NUCLEATED RED BLOOD CELLS,[2],0 /100WBC
same,PLATELET COUNT,[2],1159.83 x10E3/uL
same,ALANINE AMINOTRANSFERASE,[2],45.83 u/L
same,ALBUMIN,[2],4.1 G/DL
same,ALKALINE PHOSPHATASE,[2],240 u/L
same,ASPARTATE AMINOTRANSFERASE,[2],88.67 u/L
same,BLOOD UREA NITROGEN,[2],13.67 mg/dL
same,CARBON DIOXIDE,[2],31.83 mmol/L
same,CHLORIDE,[2],96.83 MEQ/L
same,CHOLESTEROL,[2],71.17 mg/dL
same,CREATINE PHOSPHOKINASE,[2],202.5 u/L
same,CREATININE,[2],0.22 mg/dL
same,GLUCOSE,[2],132.67 mg/dL
same,LACTATE DEHYDROGENASE,[2],107.17 u/L
same,LIPASE,[2],10.5 u/L
same,PHOSPHORUS,[2],10.47 mg/dL
same,POTASSIUM,[2],6.23 MEQ/L
same,SODIUM,[2],140.73 MEQ/L
same,TOTAL BILIRUBIN,[2],0.12 mg/dL
same,TOTAL PROTEIN,[2],6.18 G/DL
same,URIC ACID,[2],0.87 mg/dL
same,ABSOLUTE BASOPHIL,[3],0 CELLS/uL
same,ABSOLUTE EOSINOPHIL,[3],54.67 CELLS/uL
same,ABSOLUTE LYMPHOCYTE,[3],10489.83 CELLS/uL
same,ABSOLUTE MONOCYTE,[3],135 CELLS/uL
same,ABSOLUTE SEGMENTED NEUTROPHIL,[3],1470.5 CELLS/uL
same,BASOPHIL,[3],0%
same,EOSINOPHIL,[3],0.5%
same,ERYTHROCYTE COUNT,[3],5.25 x10E6/uL
same,HEMATOCRIT,[3],34.42%
same,HEMOGLOBIN,[3],12.32 G/DL
same,LEUKOCYTE COUNT,[3],12.15 x10E3/uL
same,LYMPHOCYTE,[3],86.33%
same,MEAN CORPUSCULAR HEMOGLOBIN,[3],23.48 pg
same,MEAN CORPUSCULAR HEMOGLOBIN CONCENTRATION,[3],35.82 G/DL
same,MEAN CORPUSCULAR VOLUME,[3],65.58 fL
same,MONOCYTE,[3],1.17%
same,NEUTROPHIL,[3],12%
same,NUCLEATED RED BLOOD CELLS,[3],0.17 /100WBC
same,PLATELET COUNT,[3],1089.17 x10E3/uL
same,ALANINE AMINOTRANSFERASE,[3],43.5 u/L
same,ALBUMIN,[3],4.08 G/DL
same,ALKALINE PHOSPHATASE,[3],226.5 u/L
same,ASPARTATE AMINOTRANSFERASE,[3],76.83 u/L
same,BLOOD UREA NITROGEN,[3],10.5 mg/dL
same,CARBON DIOXIDE,[3],25.83 mmol/L
same,CHLORIDE,[3],100.17 MEQ/L
same,CHOLESTEROL,[3],72 mg/dL
same,CREATINE PHOSPHOKINASE,[3],296.17 u/L
same,CREATININE,[3],0.2 mg/dL
same,GLUCOSE,[3],151.5 mg/dL
same,LACTATE DEHYDROGENASE,[3],177.33 u/L
same,LIPASE,[3],10.33 u/L
same,PHOSPHORUS,[3],11.43 mg/dL
same,POTASSIUM,[3],5.33 MEQ/L
same,SODIUM,[3],142.73 MEQ/L
same,TOTAL BILIRUBIN,[3],0.15 mg/dL
same,TOTAL PROTEIN,[3],5.93 G/DL
same,URIC ACID,[3],1 mg/dL
